Experimental data from US9695155B2, “Herbicidal substituted pyrimidinyloxy benzene compounds” (E. I. DU PONT DE NEMOURS AND COMPANY, priority 2013, dated 2017).

Legend:
pigweed [1] = test: Test C postemergence; type: in vivo, Amaranthus retroflexus; details: Amaranthus retroflexus, post-emergence
Procedure, shortened: (§1)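 Visual injury score versus untreated controls, 0 = no effect, 100 = complete control, taken 13 to 15 days after treatment in the greenhouse. Pre-emergence pots held loam/sand; post-emergence plants grew in sphagnum peat/vermiculite mix and were sprayed at the 1- to 4-leaf stage.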

ragweed = test: Test C postemergence; type: in vivo, Ambrosia elatior; details: Ambrosia artemisiifolia, post-emergence
Procedure, shortened: as §1

wild oat = test: Test C postemergence; type: in vivo, Avena fatua; details: Avena fatua, post-emergence
Procedure, shortened: as §1

lambsquarters = test: Test C postemergence; type: in vivo, Chenopodium album; details: Chenopodium album, post-emergence
Procedure, shortened: as §1

giant foxtail = test: Test A preemergence; type: in vivo, Setaria faberii; details: Setaria faberi, pre-emergence, 240 h
Procedure, shortened: (§2)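 Pre- and postemergence greenhouse screen. Soil: loam + sand. Spray carrier: solvent mixture, non-phytotoxic, with surfactant. Post timing at 1–2 leaves, height 2–10 cm. Readout: visual injury on a 0–100 scale roughly 10 days after application, untreated plants as reference.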

velvetleaf = test: Test C preemergence; type: in vivo, Abutilon theophrasti; details: Abutilon theophrasti, pre-emergence
Procedure, shortened: as §1

yellow nutsedge [2] = test: Test C preemergence; type: in vivo, Cyperus esculentus; details: Cyperus, pre-emergence
Procedure, shortened: as §1

soybean = test: Test C preemergence; type: in vivo, Glycine max; details: Glycine max, pre-emergence
Procedure, shortened: as §1

wheat, winter = test: Test C postemergence; type: in vivo, Triticum aestivum; details: Triticum aestivum, post-emergence
Procedure, shortened: as §1

blackgrass = test: Test C postemergence; type: in vivo, Alopecurus myosuroides; details: Alopecurus myosuroides, post-emergence
Procedure, shortened: as §1

yellow nutsedge [3] = test: Test C postemergence; type: in vivo, Cyperus esculentus; details: Cyperus, post-emergence
Procedure, shortened: as §1

Italian ryegrass = test: Test C postemergence; type: in vivo, Lolium multiflorum; details: Lolium multiflorum, post-emergence
Procedure, shortened: as §1

corn = test: Test A preemergence; type: in vivo, Zea mays; details: Zea mays, pre-emergence, 240 h
Procedure, shortened: as §2

rice = test: Test B flooded paddy test; type: in vivo, Oryza sativa; details: Oryza sativa; Flood, 250 g ai/ha; 0 to 100 scale where 0 is no effect and 100 is complete control; read-out: Plant response rating, Rice
Procedure, shortened: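 2-leaf stage plants; pots flooded to 3 cm, compound added to paddy water, depth maintained. Greenhouse 13–15 d. Visual rating vs untreated controls, 0 (no effect) to 100 (complete control); dash = no result.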

pigweed [4] = test: Test C preemergence; type: in vivo, Amaranthus retroflexus; details: Amaranthus retroflexus, pre-emergence
Procedure, shortened: as §1

N#Cc1cccc(Oc2ncc(Cl)cn2)c1-n1cc(C(F)(F)F)cn1 [Compound 58, 3-[(5-chloro-2-pyrimidinyl)oxy]-2-[4-(trifluoromethyl)-1H-pyrazol-1-yl]benzonitrile]
pest or weed control at 125 g/ha (pigweed [1]; 125 g ai/ha, postemergence, read-out: Plant response rating (0 to 100), Pigweed): 98%
pest or weed control at 250 g/ha (pigweed [1]; 250 g ai/ha, postemergence, read-out: Plant response rating (0 to 100), Pigweed): 100%
pest or weed control at 31 g/ha (pigweed [1]; Postemergence, 31 g ai/ha, scale 0 to 100 (0 no effect, 100 complete control), 13 to 15 days, read-out: Plant response rating, Pigweed): 90%
pest or weed control at 62 g/ha (pigweed [1]; Postemergence, 62 g ai/ha, scale 0 to 100 (0 no effect, 100 complete control), read-out: Plant response rating, Pigweed): 95%
pest or weed control at 125 g/ha (ragweed; 125 g ai/ha, postemergence, read-out: Plant response rating (0 to 100), Ragweed): 85%
pest or weed control at 250 g/ha (ragweed; 250 g ai/ha, postemergence, read-out: Plant response rating (0 to 100), Ragweed): 90%
pest or weed control at 31 g/ha (ragweed; Postemergence, 31 g ai/ha, scale 0 to 100 (0 no effect, 100 complete control), 13 to 15 days, read-out: Plant response rating, Ragweed): 40%
pest or weed control at 62 g/ha (ragweed; Postemergence, 62 g ai/ha, scale 0 to 100 (0 no effect, 100 complete control), read-out: Plant response rating, Ragweed): 45%
pest or weed control at 125 g/ha (wild oat; 125 g ai/ha, postemergence, read-out: Plant response rating (0 to 100), Oat, Wild): 45%
pest or weed control at 250 g/ha (wild oat; 250 g ai/ha, postemergence, read-out: Plant response rating (0 to 100), Oat, Wild): 55%
pest or weed control at 31 g/ha (wild oat; Postemergence, 31 g ai/ha, scale 0 to 100 (0 no effect, 100 complete control), 13 to 15 days, read-out: Plant response rating, Oat, Wild): 35%
pest or weed control at 62 g/ha (wild oat; Postemergence, 62 g ai/ha, scale 0 to 100 (0 no effect, 100 complete control), read-out: Plant response rating, Oat, Wild): 40%
pest or weed control at 125 g/ha (lambsquarters; 125 g ai/ha, postemergence, read-out: Plant response rating (0 to 100), Lambsquarters): 98%
pest or weed control at 250 g/ha (lambsquarters; 250 g ai/ha, postemergence, read-out: Plant response rating (0 to 100), Lambsquarters): 98%
pest or weed control at 31 g/ha (lambsquarters; Postemergence, 31 g ai/ha, scale 0 to 100 (0 no effect, 100 complete control), 13 to 15 days, read-out: Plant response rating, Lambsquarters): 75%
pest or weed control at 62 g/ha (lambsquarters; Postemergence, 62 g ai/ha, scale 0 to 100 (0 no effect, 100 complete control), read-out: Plant response rating, Lambsquarters): 90%
pest or weed control at 125 g/ha (giant foxtail; 125 g ai/ha, 0 to 100 scale where 0 is no effect and 100 is complete control, read-out: Plant response rating, Foxtail, Giant): 100%
pest or weed control at 500 g/ha (giant foxtail; 500 g ai/ha, 0 to 100 scale, 0 no effect, 100 complete control, approx. 10 days, read-out: Foxtail, Giant plant response rating): 100%
pest or weed control at 62 g/ha (velvetleaf; 62 g ai/ha, preemergence, scale 0 (no effect) to 100 (complete control), read-out: Velvetleaf plant response rating): 100%
pest or weed control at 125 g/ha (velvetleaf; 125 g ai/ha, preemergence, scale 0 (no effect) to 100 (complete control), read-out: Velvetleaf plant response rating): 100%
pest or weed control at 250 g/ha (velvetleaf; 250 g ai/ha, preemergence, scale 0 (no effect) to 100 (complete control), read-out: Velvetleaf plant response rating): 100%
pest or weed control at 31 g/ha (velvetleaf; Preemergence, 31 g ai/ha, scale 0 to 100, 0 no effect, 100 complete control, read-out: Plant response rating, Velvetleaf): 100%
pest or weed control at 62 g/ha (yellow nutsedge [2]; 62 g ai/ha, preemergence, scale 0 (no effect) to 100 (complete control), read-out: Nutsedge, Yellow plant response rating): 85%
pest or weed control at 125 g/ha (yellow nutsedge [2]; 125 g ai/ha, preemergence, scale 0 (no effect) to 100 (complete control), read-out: Nutsedge, Yellow plant response rating): 90%
pest or weed control at 250 g/ha (yellow nutsedge [2]; 250 g ai/ha, preemergence, scale 0 (no effect) to 100 (complete control), read-out: Nutsedge, Yellow plant response rating): 95%
pest or weed control at 31 g/ha (yellow nutsedge [2]; Preemergence, 31 g ai/ha, scale 0 to 100, 0 no effect, 100 complete control, read-out: Plant response rating, Nutsedge, Yellow): 70%
plant injury at 62 g/ha (soybean; 62 g ai/ha, preemergence, scale 0 (no effect) to 100 (complete control), read-out: Soybean plant response rating): 95%
plant injury at 125 g/ha (soybean; 125 g ai/ha, preemergence, scale 0 (no effect) to 100 (complete control), read-out: Soybean plant response rating): 98%
plant injury at 250 g/ha (soybean; 250 g ai/ha, preemergence, scale 0 (no effect) to 100 (complete control), read-out: Soybean plant response rating): 98%
plant injury at 31 g/ha (soybean; Preemergence, 31 g ai/ha, scale 0 to 100, 0 no effect, 100 complete control, read-out: Plant response rating, Soybean): 90%
plant injury at 125 g/ha (wheat, winter; 125 g ai/ha, postemergence, read-out: Plant response rating (0 to 100), Wheat): 25%
plant injury at 250 g/ha (wheat, winter; 250 g ai/ha, postemergence, read-out: Plant response rating (0 to 100), Wheat): 30%
plant injury at 31 g/ha (wheat, winter; Postemergence, 31 g ai/ha, scale 0 to 100 (0 no effect, 100 complete control), 13 to 15 days, read-out: Plant response rating, Wheat): 10%
plant injury at 62 g/ha (wheat, winter; Postemergence, 62 g ai/ha, scale 0 to 100 (0 no effect, 100 complete control), read-out: Plant response rating, Wheat): 15%
pest or weed control at 125 g/ha (blackgrass; 125 g ai/ha, postemergence, read-out: Plant response rating (0 to 100), Blackgrass): 30%
pest or weed control at 250 g/ha (blackgrass; 250 g ai/ha, postemergence, read-out: Plant response rating (0 to 100), Blackgrass): 55%
pest or weed control at 31 g/ha (blackgrass; Postemergence, 31 g ai/ha, scale 0 to 100 (0 no effect, 100 complete control), 13 to 15 days, read-out: Plant response rating, Blackgrass): 10%
pest or weed control at 62 g/ha (blackgrass; Postemergence, 62 g ai/ha, scale 0 to 100 (0 no effect, 100 complete control), read-out: Plant response rating, Blackgrass): 15%
pest or weed control at 125 g/ha (yellow nutsedge [3]; 125 g ai/ha, postemergence, read-out: Plant response rating (0 to 100), Nutsedge, Yellow): 15%
pest or weed control at 250 g/ha (yellow nutsedge [3]; 250 g ai/ha, postemergence, read-out: Plant response rating (0 to 100), Nutsedge, Yellow): 15%
pest or weed control at 31 g/ha (yellow nutsedge [3]; Postemergence, 31 g ai/ha, scale 0 to 100 (0 no effect, 100 complete control), 13 to 15 days, read-out: Plant response rating, Nutsedge, Yellow): 5%
pest or weed control at 62 g/ha (yellow nutsedge [3]; Postemergence, 62 g ai/ha, scale 0 to 100 (0 no effect, 100 complete control), read-out: Plant response rating, Nutsedge, Yellow): 5%
pest or weed control at 125 g/ha (Italian ryegrass; 125 g ai/ha, postemergence, read-out: Plant response rating (0 to 100), Ryegrass, Italian): 10%
pest or weed control at 250 g/ha (Italian ryegrass; 250 g ai/ha, postemergence, read-out: Plant response rating (0 to 100), Ryegrass, Italian): 35%
pest or weed control at 31 g/ha (Italian ryegrass; Postemergence, 31 g ai/ha, scale 0 to 100 (0 no effect, 100 complete control), 13 to 15 days, read-out: Plant response rating, Ryegrass, Italian): 5%
pest or weed control at 62 g/ha (Italian ryegrass; Postemergence, 62 g ai/ha, scale 0 to 100 (0 no effect, 100 complete control), read-out: Plant response rating, Ryegrass, Italian): 5%
Corn plant response rating (crop injury, 0 = no effect, 100 = complete kill) at 125 g/ha (corn; 125 g ai/ha, 0 to 100 scale where 0 is no effect and 100 is complete control): 40%
plant injury at 500 g/ha (corn; 500 g ai/ha, 0 to 100 scale, 0 no effect, 100 complete control, approx. 10 days, read-out: Corn plant response rating): 70%
plant injury at 250 g/ha (rice): 50%
pest or weed control at 62 g/ha (pigweed [4]; 62 g ai/ha, preemergence, scale 0 (no effect) to 100 (complete control), read-out: Pigweed plant response rating): 100%
pest or weed control at 125 g/ha (pigweed [4]; 125 g ai/ha, preemergence, scale 0 (no effect) to 100 (complete control), read-out: Pigweed plant response rating): 100%
pest or weed control at 250 g/ha (pigweed [4]; 250 g ai/ha, preemergence, scale 0 (no effect) to 100 (complete control), read-out: Pigweed plant response rating): 100%
pest or weed control at 31 g/ha (pigweed [4]; Preemergence, 31 g ai/ha, scale 0 to 100, 0 no effect, 100 complete control, read-out: Plant response rating, Pigweed): 100%
